Reference: patent US12510533B2, “Methods for treating multiple myeloma and the use of companion biomarkers for 4-(4-(4-(((2-(2,6-dioxopiperidin-3-yl)-1-oxoisoindolin-4-yl)oxy)methyl)benzyl)piperazin-1-yl)-3-fluorobenzonitrile” (Celgene Corporation, priority 2018, dated 2025)
Where two headings read alike, the source gives them in different places.

How the values were obtained:
H929-1051 [1] = assay: Apoptosis by Caspase-Glo 3/7 normalized to CellTiter-Glo in H929-1051 cells, dexamethasone alone or with compound; type: cell-based, human; settings: 72 hours; Compound 2 0.001, 0.01 or 0.1 μM
Description: Dexamethasone was dispensed at 20 concentrations, using an acoustic dispenser. The plates were sealed and stored at room temperature for the next day. […] Cells were dispensed into the assay plates with a Multidrop dispenser and duplicate plates were made for the assay. Measurement of apoptosis was made at 72 hours post-compound treatment using a Caspase-Glo 3/7 and CellTiter-Glo Assays. The Caspase-Glo 3/7 luminescence was normalized to the CellTiter-Glo luminescence to account for differences in cell number. The fold change of the treated sample was calculated as follows: normalized caspase of treated sample/average of normalized DMSO control.

H929-1051 [2] = assay: Tumor cell lysis by anti-CD3-activated, compound-treated PBMCs, co-culture with untreated H929-1051; type: cell-based; settings: Homo sapiens, PBMC; lenalidomide-resistant H929-1051, untreated; 24-hour co-culture
OPM2 cells = assay: cells; type: cell-based, human; settings: for IC50: Homo sapiens
Description: The effect of the stabilizing mutations on cell proliferation was also measured.

Aiolos [3] = molecular target: T1, Aiolos (Homo sapiens, UniProt Q96SW2+Q9UKT9); assay: Aiolos degradation, ePL luminescence assay in DF15 cells expressing ePL-tagged Aiolos; type: cell-based; settings: for DC50: read-out: Degradation of Aiolos IC50, DF15 cells
T1 construct: expressed in transfected cells; host or cells: DF15 multiple myeloma cells
Description: FIG. 1 illustrates that Compound 2 and Compound 3 degraded Aiolos protein in a time and concentration dependent manner. DF15 cells expressing Enhanced ProLabel (ePL)-tagged Aiolos were incubated with Compound 2 (triangle) or Compound 3 (square) for 45 minutes, 90 minutes, or 3 hours at the indicated concentrations. Cell extracts were then generated and the amount of Aiolos-ePL protein was determined by ePL luminescence assay.
The relative effectiveness of Compound 2 and Compound 3 to promote the destruction of Aiolos protein by the CRL4^CRBN E3 ubiquitin ligase was investigated in DF15 myeloma cells at different time points (45 minutes, 90 minutes, and 3 hours). DF15 cells expressing Enhanced ProLabel (ePL)-tagged Aiolos were incubated with Compound 2 or Compound 3 for 45 minutes, 90 minutes, or 3 hours. Cell extracts were then generated and the amount of Aiolos ePL protein was determined by ePL luminescence assay. Values shown in Table 1 correspond to data presented in FIG. 1 for Aiolos content vs. concentration.

sBCMA = assay: Phase 1 study, sBCMA in serum by ELISA; type: in vivo, human; settings: one subject; with dexamethasone
Description: This is an open-label, multi-center, international, Phase 1 study to assess the safety, PK/PD and preliminary efficacy of Compound 2 in combination with dexamethasone in subjects with RRMM.
Serum samples were taken before and during Compound 2 treatment at specified time points. The expression of sBCMA was measured by an ELISA assay.

Aiolos [4] = molecular target: T1, Aiolos; assay: Phase 1 study, Aiolos expression by flow cytometry in CD3+ T cells; type: in vivo; settings: QD days 1-10, 15-24/28 and BID days 1-3, 15-17/28; recovered during dosing interruptions
Description: FIG. 24A and FIG. 24B illustrate that Compound 2 induces Aiolos degradation in CD3+ T cells from peripheral blood of relapsed/refractory multiple myeloma patients after (FIG. 24A) the once daily (QD) 1-10, 15-24/28 schedule, or (FIG. 24B) the twice daily (BID) 1-3, 15-17/28 schedule.
Aiolos expression was measured by flow cytometry in CD3+ T cells before and during Compound 2 treatment in two different dosing schedules (QD administration on days 1 to 10 and days 15 to 24 of a 28 day cycle, and BID administration on days 1 to 3 and days 15 to 17 of a 28 day cycle).

H929-1051 cells = assay: PBMC-induced MM cell lysis, PBMCs and MM cells both pretreated, versus single MM culture (H929-1051); type: cell-based, human; settings: PBMCs and MM cells both preincubated 72 hours
Description: (§1) Ninety-six-well dishes were pre-coated with anti-CD3 antibody (OKT3, 3 μg/mL) and incubated at 4° C. overnight before the start of the experiment. Frozen PBMC donor cells were thawed at 37° C. for 2 minutes in RPMI medium with 10% FBS and cell counts and viability were measured on the Vi-CELL analyzer. Peripheral blood mononuclear cells were washed and diluted to 1×10^6 cells/mL and dispensed into the compound-treated plates in a total volume of 200 μL. Cells were incubated with Compound 2 for 2 hours before being transferred onto anti-CD3-coated plates and incubated for an additional 72 hours. At the same time, MM cell lines (NCI-H929, H929-1051, OPM2, OPM2-P10) were diluted to a final concentration of 0.1×10^6 cells/mL and labeled with CellTrace CFSE according to manufacturer's instructions. Multiple myeloma cell lines were then dispensed into compound-treated plates at a total volume of 200 μL and incubated for 72 hours. After 72 hours, the PBMCs and MM cells were counted and transferred into a U-bottom 96-well plate at a final T:E ratio of 1:5. After 24 hours coculture, specific target cell lysis by PBMC mediated apoptosis was measured using Annexin V-AF647 and 7-AAD according to manufacturer's instructions and samples were run on the Attune NxT Cytometer. […]

Ikaros and Aiolos = assay: Immunoblot of Ikaros and Aiolos in DF15R and DF15R-human CRBN WT cells; type: cell-based; settings: 0.1 μM, 4 hours
Description: Shown are Cereblon, Ikaros, and Aiolos immunoblots of extracts from DF15R and DF15R-human CRBN^WT cells that were incubated with DMSO, pomalidomide, or Compound 2 at 0.1 μM for 4 hours. Tubulin is a loading control.
To determine whether cereblon could serve as a biomarker for predicting response to Compound 2, the myeloma cell line DF15R was treated with Compound 2.

NCI-H929 cells = assay: PBMC-induced MM cell lysis, PBMCs and MM cells both pretreated, versus single MM culture (NCI-H929); type: cell-based, human; settings: PBMCs and MM cells both preincubated 72 hours
Description: as §1

T1 sequence (Q9UKT9 whole entry): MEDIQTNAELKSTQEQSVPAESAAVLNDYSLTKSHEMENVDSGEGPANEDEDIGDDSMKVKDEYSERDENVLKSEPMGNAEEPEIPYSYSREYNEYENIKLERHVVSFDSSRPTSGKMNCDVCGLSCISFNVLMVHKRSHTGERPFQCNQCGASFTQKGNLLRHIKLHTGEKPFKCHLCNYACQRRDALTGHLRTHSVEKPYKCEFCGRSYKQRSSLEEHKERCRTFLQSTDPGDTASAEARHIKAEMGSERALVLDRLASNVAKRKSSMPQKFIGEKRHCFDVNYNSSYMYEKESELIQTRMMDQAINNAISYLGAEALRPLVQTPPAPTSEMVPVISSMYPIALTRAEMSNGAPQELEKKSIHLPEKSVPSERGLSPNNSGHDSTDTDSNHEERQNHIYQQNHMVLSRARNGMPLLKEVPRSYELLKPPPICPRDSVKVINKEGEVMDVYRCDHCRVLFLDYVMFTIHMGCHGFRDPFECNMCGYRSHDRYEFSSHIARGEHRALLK
T1 sequence (Q96SW2 whole entry): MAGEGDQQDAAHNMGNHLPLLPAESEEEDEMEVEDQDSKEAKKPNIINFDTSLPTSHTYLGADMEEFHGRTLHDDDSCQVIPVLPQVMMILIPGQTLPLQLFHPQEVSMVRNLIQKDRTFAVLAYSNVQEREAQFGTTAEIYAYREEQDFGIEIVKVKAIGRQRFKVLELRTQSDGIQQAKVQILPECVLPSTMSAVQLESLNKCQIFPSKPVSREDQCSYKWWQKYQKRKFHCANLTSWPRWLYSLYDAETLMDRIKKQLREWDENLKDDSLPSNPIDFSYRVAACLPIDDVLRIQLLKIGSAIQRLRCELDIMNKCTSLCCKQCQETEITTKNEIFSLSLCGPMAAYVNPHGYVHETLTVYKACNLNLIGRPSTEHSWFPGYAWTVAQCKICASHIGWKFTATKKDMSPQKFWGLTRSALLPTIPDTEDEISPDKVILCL
T1 sequence (Q16531 2-1140, further chain): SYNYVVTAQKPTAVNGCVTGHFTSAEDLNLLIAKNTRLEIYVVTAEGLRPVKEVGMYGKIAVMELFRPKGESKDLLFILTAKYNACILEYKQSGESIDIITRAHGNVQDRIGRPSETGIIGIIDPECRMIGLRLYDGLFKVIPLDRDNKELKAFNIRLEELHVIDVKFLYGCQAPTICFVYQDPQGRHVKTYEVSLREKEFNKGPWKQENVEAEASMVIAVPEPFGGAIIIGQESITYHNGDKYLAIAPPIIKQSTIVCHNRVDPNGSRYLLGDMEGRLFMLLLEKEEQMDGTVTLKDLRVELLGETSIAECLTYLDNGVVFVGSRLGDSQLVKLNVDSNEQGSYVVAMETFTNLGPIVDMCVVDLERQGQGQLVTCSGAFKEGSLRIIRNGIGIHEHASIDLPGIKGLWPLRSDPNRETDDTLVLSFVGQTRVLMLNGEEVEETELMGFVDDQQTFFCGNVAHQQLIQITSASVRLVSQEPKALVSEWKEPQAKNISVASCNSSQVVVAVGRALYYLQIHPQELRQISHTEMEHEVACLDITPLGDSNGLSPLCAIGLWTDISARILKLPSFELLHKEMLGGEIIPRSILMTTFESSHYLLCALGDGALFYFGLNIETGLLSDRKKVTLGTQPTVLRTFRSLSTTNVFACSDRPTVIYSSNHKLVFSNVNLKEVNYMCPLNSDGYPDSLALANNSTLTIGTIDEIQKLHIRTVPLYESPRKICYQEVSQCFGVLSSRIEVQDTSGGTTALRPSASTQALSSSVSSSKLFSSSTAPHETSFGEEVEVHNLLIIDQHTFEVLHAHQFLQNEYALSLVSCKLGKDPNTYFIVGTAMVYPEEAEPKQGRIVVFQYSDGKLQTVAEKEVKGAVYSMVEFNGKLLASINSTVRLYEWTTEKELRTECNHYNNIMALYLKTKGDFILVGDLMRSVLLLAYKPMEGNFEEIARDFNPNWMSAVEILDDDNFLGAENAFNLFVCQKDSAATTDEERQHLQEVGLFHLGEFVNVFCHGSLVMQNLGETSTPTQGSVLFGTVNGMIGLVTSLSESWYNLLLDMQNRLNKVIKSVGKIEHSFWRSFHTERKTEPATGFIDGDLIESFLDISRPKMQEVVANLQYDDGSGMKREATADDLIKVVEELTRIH

## N#Cc1ccc(N2CCN(Cc3ccc(COc4cccc5c4CN([C@H]4CCC(=O)NC4=O)C5=O)cc3)CC2)c(F)c1 [Compound 2, (S)-4-(4-(4-(((2-(2,6-dioxopiperidin-3-yl)-1-oxoisoindolin-4-yl)oxy)methyl)benzyl)piperazin-1-yl)-3-fluorobenzonitrile]
H929-1051 [1]
  shift of the onset of dexamethasone activity in the presence of Compound 2: 1 log
H929-1051 [2]
  IC50: 200 pM
OPM2 cells; OPM-2, cells overexpressing stabilized Ikaros mutants (Ikaros-Q146H or Ikaros-G151A), read-out: concentration at which cells had their proliferation inhibited by 50%
  IC50: > 100000 pM
OPM2 cells; OPM-2, overexpressing Aiolos Q147H, read-out: Inhibition of Proliferation of OPM2 Cells IC50
  IC50: 60 pM
OPM2 cells; OPM-2, overexpressing Aiolos, read-out: Inhibition of Proliferation of OPM2 Cells IC50
  IC50: 80 pM
OPM2 cells; OPM-2, overexpressing Ikaros-G151A, read-out: Inhibition of Proliferation of OPM2 Cells IC50
  IC50: > 100000 pM
OPM2 cells; OPM-2, overexpressing Ikaros-Q146H, read-out: Inhibition of Proliferation of OPM2 Cells IC50
  IC50: > 100000 pM
OPM2 cells; OPM-2, overexpressing Ikaros, read-out: Inhibition of Proliferation of OPM2 Cells IC50
  IC50: 130 pM
OPM2 cells; OPM-2, overexpressing ZFP91-Q400H, read-out: Inhibition of Proliferation of OPM2 Cells IC50
  IC50: 80 pM
OPM2 cells; cells overexpressing stabilized Ikaros mutants
  increase of the 50% inhibitory concentration relative to the parental cells: more than 200 fold
Aiolos [3]; 45 minutes, 90 minutes, 3 hours
  manner of Aiolos degradation: time-dependent and concentration-dependent
Aiolos [3]; DF15, read-out: inhibition at 0.001 μM
  inhibition at 0.001 µM: 27%
Aiolos [3]; 45 minutes incubation
  DC50: > 100000 pM
Aiolos [3]; 90 minutes incubation
  DC50: 360 pM
Aiolos [3]; 3 hours incubation
  DC50: 31 pM
sBCMA
  decrease in sBCMA from baseline: > 80%
Aiolos [4]
  Aiolos degradation in CD3+ T cells: dose dependent
H929-1051 cells
  enhancement of killing, IC50 of single MM culture versus immune and tumor cell co-culture: ~6000 fold
Ikaros and Aiolos; DF15R cells, no detectable CRBN
  degradation of Ikaros or Aiolos: did not show any degradation
Ikaros and Aiolos; DF15R-human CRBN WT cells
  degradation of Ikaros and Aiolos after reintroduction of CRBN: reactivated
NCI-H929 cells
  enhancement of killing, IC50 of single MM culture versus immune and tumor cell co-culture: ~7000 fold
